ChEMBL document CHEMBL3046768, “New antiepileptic agents: structureactivity relationships” (Med Chem Res, 2012)

Tests used:
Mus musculus [1] = assay: Anticonvulsant activity in ip dosed Mus musculus (mouse) assessed as inhibition of maximal electroshock-induced seizure; format: functional; conditions: for ED50: Mus musculus, ip
Mus musculus [2] = assay: Protective index, ratio of TD50 for ip dosed Mus musculus (mouse) to ED50 for ip dosed Mus musculus (mouse) assessed as inhibition of maximal electroshock-induced seizure; format: functional
Rattus norvegicus [3] = assay: Protective index, ratio of TD50 for po dosed Rattus norvegicus (rat) to ED50 for anticonvulsant activity in po dosed rat assessed as inhibition of maximal electroshock-induced seizure; format: functional
Rattus norvegicus [4] = assay: Anticonvulsant activity in po dosed Rattus norvegicus (rat) assessed as inhibition of maximal electroshock-induced seizure after 1 hr; format: functional
Mus musculus [5] = assay: Anticonvulsant activity in ip dosed Mus musculus (mouse) assessed as inhibition of maximal electroshock-induced seizure after 1 hr; format: functional
[6] = Oral bioavailability in Rattus norvegicus (rat); format: ADME, organism-based; conditions: in vivo
Mus musculus [7] = organism: Mus musculus; assay: Anticonvulsant activity in Mus musculus (mouse) assessed as inhibition of maximal electroshock-induced seizure; format: functional
Rattus norvegicus [8] = organism: Rattus norvegicus; assay: Anticonvulsant activity in Rattus norvegicus (rat) assessed as inhibition of maximal electroshock-induced seizure; format: functional
Rattus norvegicus [9] = assay: Anticonvulsant activity in po dosed Rattus norvegicus (rat) assessed as inhibition of maximal electroshock-induced seizure after 5 hr; format: functional
[10] = Toxicity in po dosed maximal electroshock-induced seizure Rattus norvegicus (rat) model; format: organism-based; conditions: in vivo
Rattus norvegicus [11] = assay: Anticonvulsant activity in po dosed Rattus norvegicus (rat) assessed as inhibition of maximal electroshock-induced seizure after 0.5 hr; format: functional
Mus musculus [12] = assay: Anticonvulsant activity in ip dosed Mus musculus (mouse) assessed as inhibition of maximal electroshock-induced seizure after 0.25 hr; format: functional
[13] = target: T1, 5-hydroxytryptamine receptor 2C (Homo sapiens, UniProt P28335); assay: Agonist activity at Homo sapiens (human) 5-HT2C receptor assessed as calcium mobilization by cell based assay; format: functional
T1 sequence (P28335 whole entry): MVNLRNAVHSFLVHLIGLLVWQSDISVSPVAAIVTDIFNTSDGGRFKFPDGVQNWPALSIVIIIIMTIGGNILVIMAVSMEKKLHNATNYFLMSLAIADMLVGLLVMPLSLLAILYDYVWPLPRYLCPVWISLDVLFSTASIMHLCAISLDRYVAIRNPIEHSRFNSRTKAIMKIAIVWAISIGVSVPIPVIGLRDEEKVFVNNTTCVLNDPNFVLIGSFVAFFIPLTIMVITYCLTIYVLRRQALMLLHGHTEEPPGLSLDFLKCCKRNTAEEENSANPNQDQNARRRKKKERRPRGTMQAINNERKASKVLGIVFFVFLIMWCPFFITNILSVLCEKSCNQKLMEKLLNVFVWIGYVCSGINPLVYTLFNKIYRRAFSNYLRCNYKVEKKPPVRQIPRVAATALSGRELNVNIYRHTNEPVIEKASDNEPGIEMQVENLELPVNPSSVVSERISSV

Mus musculus [14] = assay: Anticonvulsant activity in ip dosed Mus musculus (mouse) assessed as inhibition of subcutaneous metrazol-induced seizure; format: functional
[15] = Toxicity in ip dosed maximal electroshock-induced seizure Mus musculus (mouse) model; format: organism-based; conditions: in vivo
Rattus norvegicus [16] = assay: Anticonvulsant activity in ip dosed Rattus norvegicus (rat) assessed as inhibition of subcutaneous pentylene tetrazole-induced seizure; format: functional
Rattus norvegicus [17] = assay: Anticonvulsant activity in ip dosed Rattus norvegicus (rat) assessed as inhibition of maximal electroshock-induced seizure; format: functional
Rattus norvegicus [18] = assay: Protective index, ratio of TD50 for ip dosed Rattus norvegicus (rat) to ED50 for ip dosed rat assessed as inhibition of maximal electroshock-induced seizure; format: functional
Rattus norvegicus [19] = assay: Anticonvulsant activity in po dosed Rattus norvegicus (rat) assessed as inhibition of maximal electroshock-induced seizure after 4 hr; format: functional
[20] = target: T2, 5-hydroxytryptamine receptor 2C (Homo sapiens) (UniProt P28335); assay: (§1) Agonist activity at Homo sapiens (human) 5-HT2C receptor assessed as 5-HT-induced calcium mobilization by cell based assay; format: functional
T2 sequence (whole entry): T1 sequence (P28335 whole entry)

[21] = target: T1, 5-hydroxytryptamine receptor 2C; assay: Agonist activity at Homo sapiens (human) 5-HT2C receptor
Mus musculus [22] = organism: Mus musculus; assay: Protective index, ratio of TD50 for Mus musculus (mouse) to […] for Mus musculus (mouse) assessed as inhibition of maximal electroshock-induced seizure; format: functional
[23] = target: 5-hydroxytryptamine receptor 2A (Homo sapiens) (UniProt P28223); assay: Agonist activity at Homo sapiens (human) 5-HT2A receptor assessed as 5-HT-induced phosphoinositide hydrolysis by cell based assay; design: scale not given: the % may be the effect or the level left
Mus musculus [24] = assay: Anticonvulsant activity in ip dosed Mus musculus (mouse) assessed as inhibition of subcutaneous pentylene tetrazole-induced seizure; format: functional
[25] = target: T1, 5-hydroxytryptamine receptor 2C; assay: as §1; format: functional

5-hydroxytryptamine receptor 2A (Homo sapiens), sequence (P28223 whole entry): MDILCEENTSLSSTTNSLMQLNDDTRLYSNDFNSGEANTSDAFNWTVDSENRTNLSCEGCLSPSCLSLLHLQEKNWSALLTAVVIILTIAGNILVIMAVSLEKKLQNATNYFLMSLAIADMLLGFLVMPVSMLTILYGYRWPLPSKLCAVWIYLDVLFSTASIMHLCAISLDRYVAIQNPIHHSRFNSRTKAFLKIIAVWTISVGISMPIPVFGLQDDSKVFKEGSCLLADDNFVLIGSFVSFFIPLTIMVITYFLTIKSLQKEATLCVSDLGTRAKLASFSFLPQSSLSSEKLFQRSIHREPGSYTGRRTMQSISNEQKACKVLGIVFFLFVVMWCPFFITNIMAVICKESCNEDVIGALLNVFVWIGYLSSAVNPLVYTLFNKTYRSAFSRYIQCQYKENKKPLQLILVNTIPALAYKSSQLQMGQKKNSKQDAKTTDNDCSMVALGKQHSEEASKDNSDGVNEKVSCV

## CCNc1nnc(-c2ccccc2O)s1
Mus musculus [1]
  inhibition (INH): 90%

## CC(=O)NC(C)C(=O)NCc1ccccc1 (stereo not drawn)
Mus musculus [2]
  Ratio TD50/ED50: 5.9
Rattus norvegicus [3]
  Ratio TD50/ED50: >20
Rattus norvegicus [4]
  ED50: 48 mg/kg
Mus musculus [5]
  ED50: 77 mg/kg

## C[C@H]1CN(c2ccc(C(F)(F)F)c3ccoc23)CCN1
[6]
  bioavailability: 83%

## CC1(C)C(C(=O)NC(N)=O)C1(C)C [2,2,3,3-TETRAMETHYLCYCLOPROPANECARBONYLUREA]
Mus musculus [7]
  ED50: 90 mg/kg
Rattus norvegicus [8]
  ED50: 29 mg/kg

## Oc1ccccc1-c1nnc(Nc2cccc(F)c2)s1
Mus musculus [1]
  inhibition (INH): 70%

## CCC1(c2ccccc2)C(=O)NC(=O)NC1=O [PHENOBARBITAL]
Rattus norvegicus [9]
  ED50: 9.1 mg/kg
Mus musculus [5]
  ED50: 22 mg/kg

## CC(=O)NN(C(=O)NCc1ccccc1)c1nccs1
Mus musculus [2]
  Ratio TD50/ED50: 5.4
Rattus norvegicus [3]
  Ratio TD50/ED50: >40
[10]
  TD50: > 250 mg/kg
Rattus norvegicus [11]
  ED50: 6.2 mg/kg
Mus musculus [12]
  ED50: 22 mg/kg

## Cc1c2n(c3c(C)c(Cl)ccc13)C(C)NCC2 (stereo not drawn)
[13]
  EC50: 0.4 nM

## O=C1NCCCCC1(O)c1ccccc1 (stereo not drawn)
Mus musculus [14]
  ED50: 74 mg/kg
Mus musculus [1]
  ED50: 63 mg/kg

## COC(=O)C1C(=O)C=C(Nc2cc(C)on2)CC1C (stereo not drawn)
Mus musculus [1]
  ED50: 68.9 mg/kg
Mus musculus [2]
  Ratio TD50/ED50: >7.3
[15]
  TD50: > 500 mg/kg

## CCOC(=O)C1C(=O)C=C(Nc2cc(C)on2)CC1C (stereo not drawn)
Rattus norvegicus [3]
  Ratio TD50/ED50: >49.6
[10]
  TD50: > 500 mg/kg

## O=C(NCc1ccccc1F)c1ccccn1 [PICOLINIC ACID FLUOROBENZYLAMIDE]
Rattus norvegicus [16]
  ED50: > 50 mg/kg
Rattus norvegicus [17]
  ED50: 14.7 mg/kg
Rattus norvegicus [18]
  Ratio TD50/ED50: <3.4

## O=C1NC(=O)C(c2ccccc2)(c2ccccc2)N1 [PHENYTOIN]
Rattus norvegicus [19]
  ED50: 30 mg/kg

## Cc1noc(C)c1COc1cc(F)c(COC(=O)N2[C@H](C)CNC[C@@H]2C)c(F)c1
[20]
  Activity: 91%

## C1CC2CNCCN3C2C(C1)[C@H]1CCC[C@H]13 (stereo partly drawn)
[21]
  EC50: 76 nM

## Clc1ccc(-c2ccc(-c3cc4c5c(c3)[C@@H]3CNC[C@@H]3N5CCCS4)cc2)c(Cl)c1
[21]
  EC50: 3 nM

## O=C1CC2(CCCC2)C(=O)N1OCc1ccccc1
Mus musculus [22]
  PI: >4.5

## CCc1cc2c(ccc3cnn(C[C@H](C)N)c32)o1
[23]
  Activity: 97%

## CCCC(CCC)C(=O)[O-].[Na+] [VALPROATE SODIUM]
Mus musculus [24]
  inhibition (INH): 80%

## Cc1cc(NC2=CC(=O)C(C(=O)OC(C)(C)C)C(C)C2)no1 (stereo not drawn)
Rattus norvegicus [3]
  Ratio TD50/ED50: >17.8
[10]
  TD50: > 500 mg/kg

## CCOc1ccc2c(c1)c(C[C@H](C)N)c1n2CCC1
[20]
  Activity: 87%
[25]
  EC50: 4 nM
